Legend:
[1] = target: T1, second (BD2: amino acids E352-E168) bromodomain of BRD4 (Homo sapiens, UniProt O60885); assay: TR-FRET bromodomain binding assay, BRD4 BD2; settings: TR-FRET assay protocol (A-G, compound concentration range); Ki calculated from IC50, probe Kd and probe concentration; read-out: TR-FRET Binding Ki: BRD4 (BDII_E352-M457)
T1 construct: protocol
Experimental: (§1) A time-resolved fluorescence resonance energy transfer (TR-FRET) assay was used to determine the affinities of compounds of the Examples listed in Table 1 for each bromodomain of BRD4. His-tagged first (BD1: amino acids K57-E168) and second (BD2: amino acids E352-E168) bromodomains of BRD4 were expressed and purified. An Alexa647-labeled BET-inhibitor was used as the fluorescent probe in the assay.
(§2) Compound dilution series were prepared in DMSO via an approximately 3-fold serial dilution from one of the following:
(§3) or 5-fold serial dilution from one of the following:
(§4) Assay method A: 2.5 mM-800 nM
(§5) For Assay methods A, C, D, and F: Compounds were then diluted 6:100 in assay buffer (20 mM Sodium Phosphate, pH 6.0, 50 mM NaCl, 1 mM Ethylenediaminetetraacetic acid, 0.01% Triton X-100, 1 mM DL-Dithiothreitol) to yield 3× working solutions. […] of this solution were added to the assay plate to reach a final volume of 18 μL.
(§6) TR-FRET data were normalized to the means of 24 no-compound controls (“high”) and 8 controls containing 1 μM un-labeled probe (“low”). Percent inhibition was plotted as a function of compound concentration and the data were fit with the 4 parameter logistic equation to obtain IC50s. Inhibition constants (Ki) were calculated from the IC50s, probe Kd and probe concentration. Typical Z′ values were between 0.65 and 0.75.

[2] = target: T2, first (BD1: amino acids K57-E168) bromodomain of BRD4 (Homo sapiens, UniProt O60885); assay: TR-FRET bromodomain binding assay, BRD4 BD1; settings: TR-FRET assay protocol (A-G, compound concentration range); Ki calculated from IC50, probe Kd and probe concentration; read-out: TR-FRET Binding Ki: BRD4 (BDI_K57-E168)
T2 construct: His-tagged first (BD1: amino acids K57-E168)
Experimental: as §1, §2, §3, §4, §5, §6

Row | Ki [1] | Ki [2] | SMILES
1 | 20.1 µM | 9.48 µM | COc1cc(=O)n(C)nc1-c1ccccc1OCc1ccccn1 [Example 40, 5-methoxy-2-methyl-6-[2-(pyridin-2-ylmethoxy)phenyl]pyridazin-3(2H)-one]
2 | > 20.3 µM | > 12.9 µM | COc1cc(=O)n(C)nc1-c1ccccc1OCc1ccc2[nH]ncc2c1 [Example 41, 6-[2-(1H-indazol-5-ylmethoxy)phenyl]-5-methoxy-2-methylpyridazin-3(2H)-one]
3 | > 22.2 µM | > 12.6 µM | COc1cc(=O)n(C)nc1-c1ccccc1OCCC1CCCCC1 [Example 42, 6-[2-(2-cyclohexylethoxy)phenyl]-5-methoxy-2-methylpyridazin-3(2H)-one]
4 | > 22.2 µM | > 5.82 µM | COc1cc(=O)n(C)nc1-c1ccccc1OCC1CCN(C(=O)OC(C)(C)C)CC1 [Example 43, tert-butyl 4-{[2-(4-methoxy-1-methyl-6-oxo-1,6-dihydropyridazin-3-yl)phenoxy]methyl}piperidine-1-carboxylate]
5 | 5.11 µM | 2.71 µM | COc1cc(=O)n(C)nc1-c1ccccc1OCC1CCNCC1 [Example 44, 5-methoxy-2-methyl-6-[2-(piperidin-4-ylmethoxy)phenyl]pyridazin-3(2H)-one]
6 | > 11.1 µM | > 5.67 µM | COc1cc(=O)n(C)nc1-c1ccccc1OCc1ccncc1 [Example 45, 5-methoxy-2-methyl-6-[2-(pyridin-4-ylmethoxy)phenyl]pyridazin-3(2H)-one]
7 | 18 µM | 4.39 µM | COc1cc(=O)n(C)nc1-c1ccccc1OCC1CCCC1 [Example 46, 6-[2-(cyclopentylmethoxy)phenyl]-5-methoxy-2-methylpyridazin-3(2H)-one]
8 | > 22.2 µM | 5.28 µM | COc1cc(=O)n(C)nc1-c1ccccc1OCC1CCOCC1 [Example 47, 5-methoxy-2-methyl-6-[2-(tetrahydro-2H-pyran-4-ylmethoxy)phenyl]pyridazin-3(2H)-one]
9 | 1.08 µM | 9.44 µM | COC(=O)C1CCN(c2cc(=O)n(C)nc2-c2ccccc2Oc2ccccc2)C1 (centres unmarked) [Example 48, methyl 1-[1-methyl-6-oxo-3-(2-phenoxyphenyl)-1,6-dihydropyridazin-4-yl]pyrrolidine-3-carboxylate]
10 | 6.6 µM | 11.6 µM | CN1CCN(c2cc(=O)n(C)nc2-c2ccccc2Oc2ccccc2)CC1=O [Example 51, 2-methyl-5-(4-methyl-3-oxopiperazin-1-yl)-6-(2-phenoxyphenyl)pyridazin-3(2H)-one]
11 | 10.5 µM | 9 µM | Cn1nc(-c2ccccc2-c2ccccc2)ccc1=O [Example 52, 6-(biphenyl-2-yl)-2-methylpyridazin-3(2H)-one]
12 | > 14.3 µM | > 11.5 µM | Cn1nc(-c2ccccc2-c2cccc(C#N)c2)ccc1=O [Example 53, 2′-(1-methyl-6-oxo-1,6-dihydropyridazin-3-yl)biphenyl-3-carbonitrile]
13 | 0.507 µM | 0.448 µM | Cc1ccc(-c2cc(=O)n(C)nc2-c2ccccc2Oc2ccccc2)cc1N [Example 64, 5-(3-amino-4-methylphenyl)-2-methyl-6-(2-phenoxyphenyl)pyridazin-3(2H)-one]
14 | – | 6.79 µM | CN1CCC(c2cc(=O)n(C)nc2-c2ccccc2Oc2ccccc2)CC1 [Example 88, 2-methyl-5-(1-methylpiperidin-4-yl)-6-(2-phenoxyphenyl)pyridazin-3(2H)-one]
15 | 1.43 µM | – | Cn1cccc1-c1cc(=O)n(C)nc1-c1ccccc1Oc1ccccc1 [Example 194, 2-methyl-5-(1-methyl-1H-pyrrol-2-yl)-6-(2-phenoxyphenyl)pyridazin-3(2H)-one]
16 | 11.8 µM | – | CN(C)C(=O)c1cncc(-c2cc(=O)n(C)nc2-c2ccccc2Oc2ccccc2)c1 [Example 215, N,N-dimethyl-5-[1-methyl-6-oxo-3-(2-phenoxyphenyl)-1,6-dihydropyridazin-4-yl]pyridine-3-carboxamide]

The next lines start with the compound.

Row | SMILES | Ki [1] | Ki [2]
17 | Cn1nc(-c2ccccc2Oc2ccc(C#N)cc2)ccc1=O [Example 3, 4-[2-(1-methyl-6-oxo-1,6-dihydropyridazin-3-yl)phenoxy]benzonitrile] | 3.43 µM | 0.851 µM
18 | Cn1nc(-c2ccccc2OC2CCCC2)ccc1=O [Example 4, 6-[2-(cyclopentyloxy)phenyl]-2-methylpyridazin-3(2H)-one] | > 4.08 µM | 1.34 µM
19 | Cn1nc(-c2ccccc2Oc2ccccn2)ccc1=O [Example 6, 2-methyl-6-[2-(pyridin-2-yloxy)phenyl]pyridazin-3(2H)-one] | 3.17 µM | 4.08 µM
20 | Cn1nc(-c2ccccc2Oc2ccc(C(F)(F)F)cc2)ccc1=O [Example 7, 2-methyl-6-{2-[4-(trifluoromethyl)phenoxy]phenyl}pyridazin-3(2H)-one] | 10.4 µM | 1.97 µM
21 | Cn1nc(-c2ccccc2Oc2ccc(S(C)(=O)=O)cc2)ccc1=O [Example 8, 2-methyl-6-{2-[4-(methylsulfonyl)phenoxy]phenyl}pyridazin-3(2H)-one] | 17.8 µM | 8.59 µM
22 | Cn1nc(-c2cc([N+](=O)[O-])ccc2Oc2ccccc2)ccc1=O [Example 9, 2-methyl-6-(5-nitro-2-phenoxyphenyl)pyridazin-3(2H)-one] | 9.26 µM | 10.5 µM
23 | Cn1nc(-c2cc(C#N)ccc2Oc2ccccc2)ccc1=O [Example 13, 3-(1-methyl-6-oxo-1,6-dihydropyridazin-3-yl)-4-phenoxybenzonitrile] | 10.2 µM | 13.1 µM
24 | Cn1nc(-c2cc(C(=O)O)ccc2Oc2ccccc2)ccc1=O [Example 15, 3-(1-methyl-6-oxo-1,6-dihydropyridazin-3-yl)-4-phenoxybenzoic acid] | 16.3 µM | 17.8 µM
25 | COc1cc(=O)n(C)nc1-c1cccc(NS(C)(=O)=O)c1 [Example 19, N-[3-(4-methoxy-1-methyl-6-oxo-1,6-dihydropyridazin-3-yl)phenyl]methanesulfonamide] | 8.58 µM | 8.85 µM
26 | COc1cc(=O)n(C)nc1-c1ccccc1Oc1ccc(C#N)cc1 [Example 32, 4-[2-(4-methoxy-1-methyl-6-oxo-1,6-dihydropyridazin-3-yl)phenoxy]benzonitrile] | 12.2 µM | 5.32 µM
27 | COc1cc(=O)n(C)nc1-c1ccccc1Oc1ccc(F)c(Cl)c1 [Example 34, 6-[2-(3-chloro-4-fluorophenoxy)phenyl]-5-methoxy-2-methylpyridazin-3(2H)-one] | 3.19 µM | 8.17 µM
28 | COc1ccc(Oc2ccccc2-c2nn(C)c(=O)cc2OC)cc1 [Example 35, 5-methoxy-6-[2-(4-methoxyphenoxy)phenyl]-2-methylpyridazin-3(2H)-one] | 1.08 µM | 2.39 µM
29 | COc1cc(=O)n(C)nc1-c1ccccc1Oc1cccc(F)c1 [Example 36, 6-[2-(3-fluorophenoxy)phenyl]-5-methoxy-2-methylpyridazin-3(2H)-one] | 4.43 µM | 5.06 µM
30 | COC(=O)COc1cc(=O)n(C)nc1-c1ccccc1Oc1ccccc1 [Example 38, methyl{[1-methyl-6-oxo-3-(2-phenoxyphenyl)-1,6-dihydropyridazin-4-yl]oxy}acetate] | 6.83 µM | 6.35 µM
31 | COc1cc(=O)n(C)nc1-c1ccccc1OC1CCCCC1 [Example 39, 6-[2-(cyclohexyloxy)phenyl]-5-methoxy-2-methylpyridazin-3(2H)-one] | 14.6 µM | 3.54 µM
